According to PMC11466185, “Mechanisms and efficacy of small molecule latency-promoting agents to inhibit HIV reactivation ex vivo” (JCI Insight, 2024):

Columns and labels:
[1] = system: HIV transcripts (TAR, LLTR, Pol, PolyA, TatRev); assay: Baseline HIV transcription without activation, PBMCs from ART-suppressed PWH, 24 hours; format: cell-based; conditions: no activation; for LLTR HIV transcripts (DMSO = 100) / Pol HIV transcripts (DMSO = 100) / PolyA HIV transcripts (DMSO = 100) / Tat-Rev HIV transcripts (DMSO = 100) / PolyA/LLTR ratio (DMSO = 1) / TatRev/PolyA ratio (DMSO = 1) / TAR HIV transcripts (DMSO = 100) / LLTR/TAR ratio (DMSO = 1): ruxolitinib 4μM, dinaciclib 8nM, AZD4573 8nM, KRIBB11 2.5μM; for LLTR HIV transcripts (DMSO = 100) / Pol HIV transcripts (DMSO = 100) / PolyA HIV transcripts (DMSO = 100) / Tat-Rev HIV transcripts (DMSO = 100) / TAR HIV transcripts (DMSO = 100): pladienolide B 10nM; for PolyA/LLTR ratio (DMSO = 1) / TatRev/PolyA ratio (DMSO = 1) / LLTR/TAR ratio (DMSO = 1): pladienolide B
Experimental: For a selection of the compounds, we evaluated the ability to reduce baseline HIV transcription without activation. PBMCs were cultured in the presence of individual drugs in DMSO or DMSO alone as a control and harvested after 24 hours. For each drug, we tested PBMCs from at least 3 PWH, as indicated in Supplemental Figure 5B. […] Likewise, pladienolide B appeared to reduce the level of multiply spliced transcripts (33%, Supplemental Figure 5, A and B).
PBMCs were isolated from fresh venous blood from 16 ART-suppressed HIV-infected study participants using Ficoll density gradient centrifugation. The cells were seeded at 6 × 10^6 cells/well and cultured with antiretrovirals (nevirapine and indinavir) to prevent new infection. On the next day, PBMCs were activated with anti-CD3/CD28–coated beads (Invitrogen) in the presence of 20 U/mL IL-2 and individual drugs in DMSO or DMSO alone as a control. Since we were limited in the PBMC yield per study participant, different study participants were used for different experiments (such as the initial screen, dose response, different time points, and studies in activated vs. unstimulated cells). In addition, the yields of PBMCs were sometimes insufficient to test all drugs for a given question or experiment.
Total cellular DNA and RNA were extracted in parallel using Trireagent (Molecular Research Center) according to the manufacturer’s instructions, except for study participants 2147 and 2461 (Figure 4), for whom DNA and RNA were extracted using the QIAGEN AllPrep DNA/RNA/miRNA Universal Kit with on-column DNase I treatment of the RNA and the manufacturer’s modification to enhance recovery of short transcripts. RNA and DNA concentrations were measured using UV spectrophotometry (NanoDrop One, Thermo Fisher Scientific). Total initiated HIV (TAR) transcripts were quantified by a 3-step polyadenylation RT-ddPCR as described previously ([8], [84]). HIV 5′ elongated (LLTR), midtranscribed (Pol), completed (PolyA), and multiply spliced (TatRev) transcripts were quantified by a 2-step RT-ddPCR as previously described ([8]). The levels of each HIV transcript were normalized to 1 μg of total cellular RNA and expressed as a percentage of the (activated) DMSO control. To quantify virion-associated RNA in supernatant, RNA was extracted from 400 μL supernatant using Trireagent-LS (Molecular Research Center) according to the manufacturer’s instructions. Levels of U3-polyadenylated HIV RNA were measured in the supernatant by RT-ddPCR, normalized to copies/mL, and expressed as a percentage of the activated DMSO. For measuring the HIV infection frequency at day 6, the HIV DNA U3-U5 LTR region was quantified by using ddPCR as described previously ([8]). HIV DNA copies were normalized to cell numbers according to the mass of DNA input per well (calculated from the DNA concentration and input volume) ([85]).
Figure S5. CDK-inhibitors appear to decrease baseline HIV splicing even in the absence of T cell activation. Each drug was tested in PBMCs from at least three ART-suppressed study participants and PBMCs were aliquoted into wells at 6x10^6 cells/well. The cells were cultured with antiretrovirals but without activation in the presence of individual drugs in (1 picture or pasted object on this page, not shown here)
DMSO or DMSO alone as control. After 24h, total RNA was extracted and the progression through different stages of HIV transcription was quantified by measuring the levels of initiated (TAR), 5’ elongated (LLTR), mid-transcribed/unspliced (Pol), completed (PolyA) and multiply spliced (TatRev) HIV transcripts. A-B) The levels of all HIV transcripts were quantified, normalized to 1 µg of total cellular RNA, and expressed as a percent of the DMSO control (% of DMSO). A) Medians are shown, as well as the values of the individual study participants in different colors. B) The medians from panel A) are presented. The effect of each drug on the different transcripts was studied in three to six study participants, as […]

[2] = system: PBMCs; assay: Cell viability by trypan blue staining after 24 hours; format: cell-based, human; set-up: key to Viability (dose-response): % of activated DMSO control viability; conditions: for Viability (dose-response): 1 participant per drug, in % (unit assumed); for Cell viability (in words): initial screening concentrations, Figure 1A
Experimental: Figure 1 Screening of candidate LPAs by measuring the change in multiply spliced HIV transcripts after activation. Each drug was tested in PBMCs from 2 ART-suppressed study participants (denoted in the legend by varying symbol shapes). PBMCs were aliquoted into wells at 6 × 10^6 cells/well. After activation, the cells were cultured with antiretrovirals in the presence of individual drugs in DMSO or DMSO alone as control. All conditions were tested in the presence of CD3/28 T cell–activating beads, except for the unactivated DMSO condition. (A) After 24 hours, the viability was measured by trypan blue staining and then normalized to the levels of the activated DMSO (% of activated DMSO). Bars indicate medians. (B) Total cellular RNA was extracted, and the levels of multiply spliced HIV transcripts (TatRev) were measured by RT-ddPCR, normalized to 1 μg of total cellular RNA, and expressed as a percentage of the activated DMSO control (% of activated DMSO). RT-dd, reverse transcription digital droplet; vRNA, viral RNA; HAT, histone acetyltransferase.
For quantification of cell-associated HIV transcripts, PBMCs were harvested either after 24 hours or after 6 days. The cell viabilities were measured by trypan blue staining; then the cells were pelleted by centrifuging at 300g for 6 minutes and stored at –80°C. For quantification of virion-associated HIV RNA, cell culture supernatant was collected from 6 × 10^6 PBMCs that were treated and activated for 6 days as described above. Residual cells and cellular debris were subsequently removed from the supernatant by differential centrifugation (300g for 6 minutes, then 20,000g for 10 minutes), and the supernatant was stored at –80°C.

[3] = participant 5557 (DMSO cell empty)

CC(=O)N[C@@H]1CCC[C@H](C(=O)Nc2cc(-c3cnn4c3CC(C)(C)C4)c(Cl)cn2)C1 [AZD4573]
5′ elongated HIV transcripts without activation compared to DMSO ([1]; 24 hours): did not reduce | Completed HIV transcripts without activation compared to DMSO ([1]; 24 hours): did not reduce | Multiply spliced HIV transcripts without activation, median relative to DMSO ([1]; 24 hours, at least 3 PWH): 0% | HIV splicing (TatRev/PolyA) without activation ([1]; 24 hours, not statistically significant): severely reduce | LLTR HIV transcripts (DMSO = 100) ([1]; participant 156): 37.81 | Pol HIV transcripts (DMSO = 100) ([1]; participant 156): 28.11 | PolyA HIV transcripts (DMSO = 100) ([1]; participant 156): 93.77 | Tat-Rev HIV transcripts (DMSO = 100) ([1]; participant 156): 0 | PolyA/LLTR ratio (DMSO = 1) ([1]; participant 156): 2.48 | TatRev/PolyA ratio (DMSO = 1) ([1]; participant 156): 0 | LLTR HIV transcripts (DMSO = 100) ([1]; participant 163): 69.35 | Pol HIV transcripts (DMSO = 100) ([1]; participant 163): 112.58 | PolyA HIV transcripts (DMSO = 100) ([1]; participant 163): 122.94 | Tat-Rev HIV transcripts (DMSO = 100) ([1]; participant 163): 0 | PolyA/LLTR ratio (DMSO = 1) ([1]; participant 163): 1.773 | TatRev/PolyA ratio (DMSO = 1) ([1]; participant 163): 0 | LLTR HIV transcripts (DMSO = 100) ([1]; participant 1379): 41.73 | Pol HIV transcripts (DMSO = 100) ([1]; participant 1379): 110.74 | PolyA HIV transcripts (DMSO = 100) ([1]; participant 1379): 43.19 | TAR HIV transcripts (DMSO = 100) ([1]; participant 1379): 286.67 | LLTR/TAR ratio (DMSO = 1) ([1]; participant 1379): 0.1456 | PolyA/LLTR ratio (DMSO = 1) ([1]; participant 1379): 1.035 | LLTR HIV transcripts (DMSO = 100) ([1]; participant 2027): 76.52 | Pol HIV transcripts (DMSO = 100) ([1]; participant 2027): 30.35 | PolyA HIV transcripts (DMSO = 100) ([1]; participant 2027): 87.13 | TAR HIV transcripts (DMSO = 100) ([1]; participant 2027): 211.63 | LLTR/TAR ratio (DMSO = 1) ([1]; participant 2027): 0.3616 | PolyA/LLTR ratio (DMSO = 1) ([1]; participant 2027): 1.1386 | LLTR HIV transcripts (DMSO = 100) ([1]; participant 2750): 134.54 | Pol HIV transcripts (DMSO = 100) ([1]; participant 2750): 202.4 | PolyA HIV transcripts (DMSO = 100) ([1]; participant 2750): 70.63 | TAR HIV transcripts (DMSO = 100) ([1]; participant 2750): 206.7 | Tat-Rev HIV transcripts (DMSO = 100) ([1]; participant 2750): 0 | LLTR/TAR ratio (DMSO = 1) ([1]; participant 2750): 0.6509 | PolyA/LLTR ratio (DMSO = 1) ([1]; participant 2750): 0.525 | TatRev/PolyA ratio (DMSO = 1) ([1]; participant 2750): 0 | LLTR HIV transcripts (DMSO = 100) [1, 3]: 170.71 | Pol HIV transcripts (DMSO = 100) [1, 3]: 0 | TAR HIV transcripts (DMSO = 100) ([1]; participant 5557): 348.03 | LLTR/TAR ratio (DMSO = 1) ([1]; participant 5557): 0.57 | Viability (dose-response) ([2]; dose 1 nM): 74.75 | Viability (dose-response) ([2]; dose 8 nM): 63.616 | Viability (dose-response) ([2]; dose 20 nM): 68.369 | Viability (Fig 1A) ([2]; study participant 150a): 106.07 % of activated DMSO | Viability (Fig 1A) ([2]; study participant 152): 97.45 % of activated DMSO

CN1CC[C@H](c2c(O)cc(O)c3c(=O)cc(-c4ccccc4Cl)oc23)[C@H](O)C1 [alvocidib]
Viability (dose-response) ([2]; dose 4 nM): 81 | Viability (dose-response) ([2]; dose 10 nM): 85 | Viability (dose-response) ([2]; dose 40 nM): 95.181 | Viability (dose-response) ([2]; dose 100 nM): 77 | Viability (Fig 1A) ([2]; study participant 150a): 98.54 % of activated DMSO

CO[C@H]([C@@H](C)[C@H]1O[C@]1(C)C[C@H](C)/C=C/C=C(\C)[C@H]1O[C@@H](CC(=O)O)CC[C@@H]1C)[C@@H](C)O [herboxidiene]
Viability (Fig 1A) ([2]; study participant 150a): 99.57 % of activated DMSO | Viability (Fig 1A) ([2]; study participant 2147b): 98.97 % of activated DMSO

COc1ccc(-c2cc(=O)c3c(O)cc(O)c(-c4cc(-c5cc(=O)c6c(O)cc(O)cc6o5)ccc4OC)c3o2)cc1 [isoginkgetin]
Cell viability (in words) [2]: impact on cell viability | Viability (Fig 1A) ([2]; study participant 150a): 88.97 % of activated DMSO | Viability (Fig 1A) ([2]; study participant 152): 84.74 % of activated DMSO

O=c1c(O)c(-c2ccc(O)c(O)c2)oc2cc(O)cc(O)c12 [quercetin]
Viability (dose-response) ([2]; dose 5 µM): 87.619 | Viability (dose-response) ([2]; dose 10 µM): 77.686 | Viability (Fig 1A) ([2]; study participant 150a): 100.02 % of activated DMSO | Viability (Fig 1A) ([2]; study participant 152): 90.16 % of activated DMSO

C=CCNC1=C2C[C@@H](C)C[C@H](OC)[C@H](O)[C@@H](C)/C=C(\C)[C@H](OC(N)=O)[C@@H](OC)/C=C\C=C(/C)C(=O)NC(=CC1=O)C2=O [tanespimycin]
Viability (Fig 1A) ([2]; study participant 150b): 104.931 % of activated DMSO | Viability (Fig 1A) ([2]; study participant 2147b): 92.78 % of activated DMSO

CC(C)[C@]12O[C@H]1[C@@H]1O[C@]13[C@]1(O[C@H]1C[C@H]1C4=C(CC[C@@]13C)C(=O)OC4)[C@@H]2O [triptolide]
Cell viability (in words) [2]: impact on cell viability | Viability (Fig 1A) ([2]; study participant 150b): 96.4057 % of activated DMSO | Viability (Fig 1A) ([2]; study participant 2147b): 91.51 % of activated DMSO
